# Data: PubChem BioAssay (NCI)
#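 Results reflect a 48-hour exposure of cells in 96-well plates to compound at five concentrations. GI50 = concentration required for 50% inhibition of growth. TGI denotes the concentration required for complete inhibition of growth.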
# Columns and labels:
# Experiment in all cases: NCI-60 cell line screen, 48 h
# MALME-3M melanoma = system: MALME-3M melanoma
# M14 melanoma = system: M14 melanoma
# NCI/ADR-RES ovarian = system: NCI/ADR-RES ovarian
# T-47D breast = system: T-47D breast
# SR leukemia = system: SR leukemia
# A549 NSCLC = system: A549 NSCLC
# SF-295 CNS = system: SF-295 CNS
# NCI-H460 lung = system: NCI-H460 lung
# UACC-62 melanoma = system: UACC-62 melanoma
# MOLT-4 leukemia = system: MOLT-4 leukemia
SMILES,GI50 (MALME-3M melanoma) [µM],TGI (MALME-3M melanoma) [µM],GI50 (M14 melanoma) [µM],TGI (M14 melanoma) [µM],GI50 (NCI/ADR-RES ovarian) [µM],TGI (NCI/ADR-RES ovarian) [µM],GI50 (T-47D breast) [µM],TGI (T-47D breast) [µM],GI50 (SR leukemia) [µM],TGI (SR leukemia) [µM],GI50 (A549 NSCLC) [µM],TGI (A549 NSCLC) [µM],GI50 (SF-295 CNS) [µM],TGI (SF-295 CNS) [µM],GI50 (NCI-H460 lung) [µM],TGI (NCI-H460 lung) [µM],GI50 (UACC-62 melanoma) [µM],TGI (UACC-62 melanoma) [µM],GI50 (MOLT-4 leukemia) [µM],TGI (MOLT-4 leukemia) [µM]
Cn1cnc([N+](=O)[O-])c1Sc1ncn[nH]1,23.9,> 100,> 100,> 100,> 100,> 100,17,> 100,35.1,> 100,> 100,> 100,> 100,> 100,> 100,> 100,96.3,> 100,> 100,> 100
c1ccc(CNc2nc(Nc3ccccc3)nc3ccccc23)cc1,1.7,3.38,1.83,3.6,1.99,5,1.72,4.46,2.28,6.07,1.84,5.35,1.73,3.77,,,1.48,2.95,2.21,5.37
CC(Br)C(=O)Nc1ccc(C(=O)O)c(O)c1 (stereo not drawn),,42.1,,> 100,,> 100,,> 100,,> 100,,> 100,,> 100,,> 100,,> 100,,> 100
COc1ccc(C2=CC(c3ccc(OC)c(OC)c3)c3c(c4ccccc4oc3=O)O2)cc1OC (stereo not drawn),> 100,> 100,1.27,> 31.3,0.545,,3.66,> 100,0.498,> 100,3.07,> 100,0.442,> 100,1.9,> 100,0.473,> 100,4.05,> 100
CCOC(=O)c1c(C)c(C)n2c1NC(=O)C2,,> 85.7,,> 100,,81.5,,70.7,,> 100,,> 100,,> 100,,> 100,,> 100,,> 100
C=CS(=O)(=O)CCN1CC1,,> 10,,> 10,,> 10,,> 10,,> 10,,> 10,,> 10,,,,> 10,,> 10
O=S(=O)(NCCNc1nccc(-c2c(-c3ccc(F)cc3)nc3sccn23)n1)c1ccccc1,5.82,51.1,4.94,> 100,5.6,> 100,1.79,27.3,3.46,> 100,1.93,> 100,7.64,34.2,2.72,> 100,5.13,23.2,4.84,57.5
COc1cc(/C=C/C(=O)c2cccnc2Nc2ccc(F)cc2)cc(OC)c1OC,6.9,48.9,3.19,9.94,2.37,8.14,3.96,25,1.93,8.36,2.66,11.5,4.16,69.4,2.83,10.1,2.35,6.58,2.75,9.52
COc1ccc(Nc2cc(C)nc(N3CCN(c4ccnc5cc(Cl)ccc45)CC3)n2)cc1,3.17,> 100,1.75,5.32,2.48,8.43,1.99,6.59,2.68,> 100,2,> 100,1.28,7.68,1.92,> 100,1.71,5.93,2.9,19.7
Cc1ccc(-c2nc(N3CCCNCC3)c3oc(-c4ccc(C)cc4)nc3n2)cc1,1.98,3.61,1.85,3.55,1.96,3.74,1.94,4.17,0.213,0.575,1.72,3.13,1.86,3.54,1.89,3.43,1.67,3.08,1.77,3.59
CCN(CC)CCSCCCNc1c2ccc(Cl)cc2nc2ccc(OC)cc12,2.03,3.73,1.71,3.46,1.15,3.7,2.05,4.82,0.976,4.84,0.98,3.03,1.13,2.76,0.383,1.58,1.93,3.87,0.435,3.94
CCN(CC)CCOc1ccc(C(=O)/C=C\c2ccc(Cl)cc2Cl)cc1,3.41,15.3,2.17,5,9.91,23.3,11.9,33.6,1.69,5.34,6.55,22.6,8.7,22.3,11.1,26.1,2.08,4.71,,
Cn1c(=O)c(Oc2ccc(F)cc2F)cc2cnc(NCCS(C)(=O)=O)nc21,> 25,> 25,> 25,> 25,> 25,> 25,> 25,> 25,> 25,> 25,> 25,> 25,> 25,> 25,> 25,> 25,> 25,> 25,> 25,> 25
O=C1OC(c2ccccc2)=N/C1=C\c1cccc(F)c1,,,,> 100,,69.9,,> 100,,56.4,,> 100,,> 100,,> 100,,> 100,,67.9
